Data on two compounds can be found in ChEMBL document CHEMBL4396866, “Discovery and Structure-Based Optimization of Next-Generation Reversible Methionine Aminopeptidase-2 (MetAP-2) Inhibitors” (J Med Chem, 2019).

A short description of series [1]: Drug metabolism in DMSO assessed as oxidation by measuring rac-3-Hydroxy-2-oxo-1-phenylpyrrolidine-3-carboxylic Acid (2-Thiophen-2-ylethyl)amide formation incubated at high temperature under stirring condition for 2 days.
Series [2] is described as follows: Drug metabolism in DMSO assessed as oxidation by measuring rac-3-Hydroxy-2-oxo-1-phenylpyrrolidine-3-carboxylic Acid (2-Thiophen-2-ylethyl)amide formation measured after 2 years.
A short description of series [3]: Oral bioavailability in mouse at 50 mg/kg. The conditions noted are these: in vivo. It is filed as ADME, organism-based.
Series [4] can be described thus: Solubility of the compound in FeSSIF. Format: physicochemical.
The next series relates to U-87 MG. In words: Antitumor activity against human U87MG cells xenografted in po dosed CD-1 nude mouse assessed as tumor growth inhibition administered once daily for 12 days. It is filed as functional, organism-based. The conditions noted are these: U-87MG ATCC. For orientation: In xenograft studies the graft and the host belong to different species.
The nature of series [5]: Stability in human liver microsomes assessed per mg protein. Format: ADME, Microsome. A general note: Liver microsomes are vesicles of endoplasmic reticulum, rich in cytochrome P450 enzymes.
The nature of series [6]: Dissociation constant, pKa of compound. It is filed as physicochemical.
Series [7] can be described thus: Passive permeability across apical to basal side in human Caco2 cells. Format: ADME, cell-based. The note with it: Caco-2, read-out: permeability. On the technique in general: Caco-2 cells form a polarised layer with tight junctions and transporters.
Series [8] in a line: Half life in mouse at 0.2 mg/kg, iv. Format: ADME, organism-based. The conditions noted are these: in vivo.
Series [9] can be described thus: Oral bioavailability in mouse at 0.5 mg/kg. Format: ADME, organism-based. The note with it: in vivo.
Series [10] in a line: Toxicity in CD-1 nude mouse xenografted with human U87MG cells at 5 to 20 mg/kg, po administered once daily for 12 days measured during compound dosing. The conditions noted are these: in vivo, 288 h. Format: organism-based.
Series [11] in a line: Stability in mouse liver microsomes assessed per mg protein. It is filed as ADME, Microsome.
Series [12] in a line: Toxicity in CD-1 nude mouse xenografted with human U87MG cells assessed as body weight loss at 5 to 20 mg/kg, po administered once daily for 12 days measured during compound dosing. It is filed as organism-based. The note with it: in vivo, 288 h.
The nature of series [13]: Clearance in mouse at 0.2 mg/kg, iv. Format: ADME, organism-based. The note with it: in vivo.
Series [14] can be described thus: Solubility of the compound in FaSSIF. Format: physicochemical.
Series [15] is described as follows: Volume of distribution at steady state in mouse at 0.2 mg/kg, iv. Format: ADME, organism-based. The note with it: in vivo, read-out: Vdss.
Series [16] in a line: Lipophilicity, log D of the compound at pH 7.4. The note with it: buffer. Format: physicochemical.

Values after ≈ are worked out from the molar mass of the structure shown.

As for `O=C(NCCc1cccs1)C1CCN(c2ccccc2)C1=O` (configuration not stated), the Drug metabolism result is recorded as “Metabolite not detected” in series [1] and “Metabolite detected” in [2].

For `O=C1CCc2cc(N3CC[C@](O)(C(=O)NCc4cc(F)cc(Cl)c4)C3=O)ccc2N1`, the bioavailability in series [3] turned out to be 100%; in series [9], 35%. For the same compound, the solubility in [4] amounted to 334 µg/mL (≈ 773 µM); in series [14], 158 µg/mL (≈ 366 µM). For the same compound, the TGI entry in the series with U-87 MG is “Dose-dependent effect”. Further, the Stability in series [5] and in series [11] was < 10 µL/min in each case. In series [6], the pKa is 11. Also, the Papp A→B in series [7] is 16 ×10⁻⁶ cm/s. In addition, the half-life in series [8] was 3 h. Further, the Activity result in [10] and in series [12] was “Non-Toxic” throughout. In series [13], the clearance was 3 mL/min/kg. The Vd in series [15] turned out to be 0.78 L/kg. Further, the logD in series [16] was 2.

One may read the bioavailability as dose-corrected exposure relative to a reference, in per cent. The term solubility denotes the dissolved amount per volume that the medium holds. Read a low solubility as little dissolved substance. The term pKa denotes the negative logarithm of the acid dissociation constant. Lower therefore signals a stronger acid or weaker base. What is called half-life is the time in which the quantity being followed falls by half. Lower therefore signals fast loss. The clearance is a measure of how efficiently the substance is removed, as volume per time. Read a high clearance as a high capacity for elimination. Broadly, the logD is lipophilicity at a set pH, counting ionised and neutral species. A high value points to a more lipophilic compound.
